According to patent publication US9745261B2, “Inhibitors of the MITF molecular pathway” (THE GENERAL HOSPITAL CORPORATION, priority 2013, dated 2017):

Assays:
MITF = test: qPCR assay for MITF expression in SK-MEL-5 cells; format: cell-based; settings: Homo sapiens; SK-MEL-5 melanoma cells, up to 35 μM
Procedure: (§1) SK-MEL-5 cells were treated with compounds for 24 hours. Next, cells were lysed with DNase I (Ambion, from Cell to CT Lysis Mix). Lysed cells were delivered to a RT-PCR plate (Ambion, Cells to CT RT Mix) and the plates were then processed for reverse transcription to create cDNA. qPCR was performed by transferring cDNA from the RT-PCR plate to a qPCR plate containing PCR master mix (Roche, Probes Master), FAM Taqman probe/primer set for the target gene (human MITF, Applied Biosystem, 4331182 Hs01117294_m1), VIC Taqman probe/primer set for a house keeping gene (human GAPDH, Applied Biosystems C10228) and water. qPCR plates were cycled using a real-time PCR instrument (Roche, Light Cycler). Using the instrument software, a cycle call was generated when each well enters log phase amplification (Ct). The delta Ct value was determined by subtracting the Ct value of the control gene (GAPDH) from the Ct value of the target gene (MITF) in each well. The delta delta Ct value of each compound treatment was determined by averaging the delta Ct values of the mock well on each plate and subtracting that average from the delta Ct value of each compound well. […]
(§2) • 10. […] The RT assay plates are incubated at 37° C. for 1 hour and the reverse transcriptase is inactivated by incubating the plates for 1 minute at 95° C. • 13. cDNA is stored at −80° C. until ready for qPCR analysis […]

CDK2 = test: qPCR assay for CDK2 expression in SK-MEL-5 cells; format: cell-based, human; settings: Homo sapiens; SK-MEL-5 melanoma cells, up to 35 μM
Procedure: as §1, §2

MLANA = test: qPCR assay for MLANA expression in SK-MEL-5 cells; format: cell-based; settings: Homo sapiens; SK-MEL-5 melanoma cells, up to 35 μM
Adenosine A3 = target: T1, Adenosine A3 (Homo sapiens, UniProt P0DMS8); test: Radioligand binding, Adenosine A3
T1 construct: Eurofins Panlabs, Inc. (contract assay) 200720 (assay number)

Adrenergic β1 = target: T2, Adrenergic β1 (Homo sapiens, UniProt P08588); test: Radioligand binding, Adrenergic β1
T2 construct: Eurofins Panlabs, Inc. (contract assay)

Adrenergic β2 = target: T3, Adrenergic β2 (Homo sapiens, UniProt P07550); test: Radioligand binding, Adrenergic β2
T3 construct: Eurofins Panlabs, Inc. (contract assay)

Bradykinin B1 = target: T4, Bradykinin B1 (Homo sapiens, UniProt P46663); test: Radioligand binding, Bradykinin B1
T4 construct: Eurofins Panlabs, Inc. (contract assay)

Calcium Channel N-Type = target: T5, Calcium Channel N-Type (Rattus norvegicus, UniProt Q02294); test: Radioligand binding, Calcium Channel N-Type
T5 construct: Eurofins Panlabs, Inc. (contract assay)

Dopamine D2S = target: T6, Dopamine D2S (Homo sapiens, UniProt P14416); test: Radioligand binding, Dopamine D2S
T6 construct: Eurofins Panlabs, Inc. (contract assay)

Endothelin ETA = target: T7, Endothelin ETA (Homo sapiens, UniProt P25101); test: Radioligand binding, Endothelin ETA
T7 construct: Eurofins Panlabs, Inc. (contract assay)

Endothelin ETB = target: T8, Endothelin ETB (Homo sapiens, UniProt P24530); test: Radioligand binding, Endothelin ETB
T8 construct: Eurofins Panlabs, Inc. (contract assay)

Estrogen ERα = target: T9, Estrogen ERα (Homo sapiens, UniProt P03372); test: Radioligand binding, Estrogen ERα
T9 construct: Eurofins Panlabs, Inc. (contract assay)

Glutamate, NMDA, Glycine = target: T10, Glutamate, NMDA, Glycine (Rattus norvegicus, UniProt P35439); test: Radioligand binding, Glutamate, NMDA, Glycine
T10 construct: Eurofins Panlabs, Inc

Muscarinic M1 = target: T11, Muscarinic M1 (Homo sapiens, UniProt P11229); test: Radioligand binding, Muscarinic M1
T11 construct: Eurofins Panlabs, Inc

Muscarinic M3 = target: T12, Muscarinic M3 (Homo sapiens, UniProt P20309); test: Radioligand binding, Muscarinic M3
T12 construct: Eurofins Panlabs, Inc

Neuropeptide Y Y1 = target: T13, Neuropeptide Y Y1 (Homo sapiens, UniProt P25929); test: Radioligand binding, Neuropeptide Y Y1
T13 construct: Eurofins Panlabs, Inc

Neuropeptide Y Y2 = target: T14, Neuropeptide Y Y2 (Homo sapiens, UniProt P49146); test: Radioligand binding, Neuropeptide Y Y2
T14 construct: Eurofins Panlabs, Inc

Prostanoid EP4 = target: T15, Prostanoid EP4 (Homo sapiens, UniProt P35408); test: Radioligand binding, Prostanoid EP4
T15 construct: Eurofins Panlabs

[1] = target: T16, Transporter, Serotonin (5-Hydroxytryptamine) (SERT) (Homo sapiens, UniProt P31645); test: Radioligand binding, Transporter, Serotonin (5-Hydroxytryptamine) (SERT)
T16 construct: Eurofins Panlabs
T16 sequence (P31645 whole entry): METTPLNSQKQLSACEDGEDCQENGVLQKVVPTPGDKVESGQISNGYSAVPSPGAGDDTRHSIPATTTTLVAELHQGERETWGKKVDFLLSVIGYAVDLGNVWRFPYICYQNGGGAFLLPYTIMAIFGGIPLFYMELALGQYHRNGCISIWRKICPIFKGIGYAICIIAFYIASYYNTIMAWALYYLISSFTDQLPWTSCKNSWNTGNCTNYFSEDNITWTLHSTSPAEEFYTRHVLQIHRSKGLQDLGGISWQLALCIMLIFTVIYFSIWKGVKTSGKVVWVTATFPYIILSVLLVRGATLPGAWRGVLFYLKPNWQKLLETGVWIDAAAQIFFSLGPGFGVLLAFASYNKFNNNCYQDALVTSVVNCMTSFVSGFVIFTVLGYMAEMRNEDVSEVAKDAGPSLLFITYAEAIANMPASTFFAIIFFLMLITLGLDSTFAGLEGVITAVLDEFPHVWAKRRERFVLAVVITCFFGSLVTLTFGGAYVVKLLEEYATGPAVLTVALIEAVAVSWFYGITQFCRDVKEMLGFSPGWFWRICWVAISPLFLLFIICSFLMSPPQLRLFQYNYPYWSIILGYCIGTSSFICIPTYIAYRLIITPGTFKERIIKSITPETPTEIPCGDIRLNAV

T1 sequence (P0DMS8 whole entry): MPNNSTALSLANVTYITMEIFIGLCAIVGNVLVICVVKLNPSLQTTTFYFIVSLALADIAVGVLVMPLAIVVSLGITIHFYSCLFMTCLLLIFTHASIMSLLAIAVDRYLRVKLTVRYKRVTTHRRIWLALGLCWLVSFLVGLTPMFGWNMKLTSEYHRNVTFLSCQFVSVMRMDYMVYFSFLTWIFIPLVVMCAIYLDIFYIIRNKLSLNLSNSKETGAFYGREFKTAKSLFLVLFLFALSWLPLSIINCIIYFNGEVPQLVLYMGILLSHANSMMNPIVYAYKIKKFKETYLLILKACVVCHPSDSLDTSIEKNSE
T8 sequence (P24530 27-442): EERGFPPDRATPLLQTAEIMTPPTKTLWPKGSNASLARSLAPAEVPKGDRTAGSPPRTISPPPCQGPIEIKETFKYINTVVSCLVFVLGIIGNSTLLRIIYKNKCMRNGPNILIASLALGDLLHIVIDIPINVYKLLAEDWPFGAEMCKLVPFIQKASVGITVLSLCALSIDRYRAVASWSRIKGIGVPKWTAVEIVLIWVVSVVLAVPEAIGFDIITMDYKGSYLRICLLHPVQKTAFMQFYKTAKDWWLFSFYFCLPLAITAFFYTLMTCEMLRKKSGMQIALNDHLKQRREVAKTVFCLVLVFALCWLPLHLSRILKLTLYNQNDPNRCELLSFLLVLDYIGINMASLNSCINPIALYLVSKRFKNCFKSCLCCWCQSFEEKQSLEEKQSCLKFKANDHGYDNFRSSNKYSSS
T15 sequence (P35408 whole entry): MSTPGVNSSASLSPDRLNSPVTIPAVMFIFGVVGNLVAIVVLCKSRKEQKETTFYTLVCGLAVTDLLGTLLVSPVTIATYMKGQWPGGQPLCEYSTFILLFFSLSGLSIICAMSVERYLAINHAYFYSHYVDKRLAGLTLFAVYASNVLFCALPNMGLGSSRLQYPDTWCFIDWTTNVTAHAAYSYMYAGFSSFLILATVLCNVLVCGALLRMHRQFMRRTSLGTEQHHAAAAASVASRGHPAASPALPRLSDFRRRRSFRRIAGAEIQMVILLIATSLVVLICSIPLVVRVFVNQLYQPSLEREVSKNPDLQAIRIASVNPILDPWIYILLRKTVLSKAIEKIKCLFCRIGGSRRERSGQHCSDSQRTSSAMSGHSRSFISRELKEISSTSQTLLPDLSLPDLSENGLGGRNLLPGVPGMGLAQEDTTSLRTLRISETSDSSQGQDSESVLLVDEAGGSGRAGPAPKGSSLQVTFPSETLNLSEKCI
T14 sequence (P49146 whole entry): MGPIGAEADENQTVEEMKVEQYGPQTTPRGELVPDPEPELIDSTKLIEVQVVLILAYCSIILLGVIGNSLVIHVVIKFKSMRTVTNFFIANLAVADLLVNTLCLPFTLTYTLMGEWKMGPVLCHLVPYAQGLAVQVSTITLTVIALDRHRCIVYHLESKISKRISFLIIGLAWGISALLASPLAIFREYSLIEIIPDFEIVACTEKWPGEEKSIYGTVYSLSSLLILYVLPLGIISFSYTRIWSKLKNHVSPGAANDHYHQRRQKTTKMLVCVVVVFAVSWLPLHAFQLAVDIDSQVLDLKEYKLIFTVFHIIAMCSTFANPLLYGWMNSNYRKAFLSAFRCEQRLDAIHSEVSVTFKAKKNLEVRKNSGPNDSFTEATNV
T7 sequence (P25101 21-427): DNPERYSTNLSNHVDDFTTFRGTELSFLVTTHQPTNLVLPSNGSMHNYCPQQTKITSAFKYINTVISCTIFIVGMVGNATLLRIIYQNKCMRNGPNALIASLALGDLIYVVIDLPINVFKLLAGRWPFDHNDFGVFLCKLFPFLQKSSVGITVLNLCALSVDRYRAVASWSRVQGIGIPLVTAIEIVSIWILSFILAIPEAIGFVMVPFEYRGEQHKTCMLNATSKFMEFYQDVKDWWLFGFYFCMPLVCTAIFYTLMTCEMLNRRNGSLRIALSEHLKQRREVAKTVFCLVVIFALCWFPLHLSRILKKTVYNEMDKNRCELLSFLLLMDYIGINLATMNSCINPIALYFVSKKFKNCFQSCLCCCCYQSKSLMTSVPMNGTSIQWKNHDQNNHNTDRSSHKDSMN
T9 sequence (P03372 whole entry): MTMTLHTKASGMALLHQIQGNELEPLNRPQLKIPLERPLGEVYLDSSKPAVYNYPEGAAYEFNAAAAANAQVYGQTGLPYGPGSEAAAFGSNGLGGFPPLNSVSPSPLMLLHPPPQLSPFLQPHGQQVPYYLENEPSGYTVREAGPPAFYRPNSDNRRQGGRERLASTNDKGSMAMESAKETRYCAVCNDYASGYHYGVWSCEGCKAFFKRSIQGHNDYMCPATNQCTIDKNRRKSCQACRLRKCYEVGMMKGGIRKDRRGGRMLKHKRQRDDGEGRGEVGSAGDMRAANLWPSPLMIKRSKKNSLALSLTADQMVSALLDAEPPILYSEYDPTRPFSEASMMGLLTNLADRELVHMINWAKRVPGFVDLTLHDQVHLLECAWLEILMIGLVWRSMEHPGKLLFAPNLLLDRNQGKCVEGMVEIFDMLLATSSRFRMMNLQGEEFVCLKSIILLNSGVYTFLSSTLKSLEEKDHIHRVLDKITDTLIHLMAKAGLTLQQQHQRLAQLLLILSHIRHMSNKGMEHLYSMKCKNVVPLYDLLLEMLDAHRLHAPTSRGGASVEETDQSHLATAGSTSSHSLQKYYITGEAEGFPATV
T12 sequence (P20309 whole entry): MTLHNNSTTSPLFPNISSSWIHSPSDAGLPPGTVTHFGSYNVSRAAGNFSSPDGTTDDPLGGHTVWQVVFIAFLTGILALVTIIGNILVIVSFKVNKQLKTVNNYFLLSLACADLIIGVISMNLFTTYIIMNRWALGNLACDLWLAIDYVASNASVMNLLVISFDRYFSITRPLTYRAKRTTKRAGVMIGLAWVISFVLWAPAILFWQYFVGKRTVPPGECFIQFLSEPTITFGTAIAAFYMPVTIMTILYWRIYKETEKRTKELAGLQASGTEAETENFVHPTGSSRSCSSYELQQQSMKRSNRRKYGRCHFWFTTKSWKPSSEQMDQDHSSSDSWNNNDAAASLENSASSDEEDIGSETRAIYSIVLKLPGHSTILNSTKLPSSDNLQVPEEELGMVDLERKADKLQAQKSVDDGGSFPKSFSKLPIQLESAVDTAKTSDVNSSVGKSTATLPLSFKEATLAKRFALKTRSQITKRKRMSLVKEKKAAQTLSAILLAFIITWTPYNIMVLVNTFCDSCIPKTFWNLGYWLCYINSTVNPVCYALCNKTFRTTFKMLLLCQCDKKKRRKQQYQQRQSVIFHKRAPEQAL
T11 sequence (P11229 whole entry): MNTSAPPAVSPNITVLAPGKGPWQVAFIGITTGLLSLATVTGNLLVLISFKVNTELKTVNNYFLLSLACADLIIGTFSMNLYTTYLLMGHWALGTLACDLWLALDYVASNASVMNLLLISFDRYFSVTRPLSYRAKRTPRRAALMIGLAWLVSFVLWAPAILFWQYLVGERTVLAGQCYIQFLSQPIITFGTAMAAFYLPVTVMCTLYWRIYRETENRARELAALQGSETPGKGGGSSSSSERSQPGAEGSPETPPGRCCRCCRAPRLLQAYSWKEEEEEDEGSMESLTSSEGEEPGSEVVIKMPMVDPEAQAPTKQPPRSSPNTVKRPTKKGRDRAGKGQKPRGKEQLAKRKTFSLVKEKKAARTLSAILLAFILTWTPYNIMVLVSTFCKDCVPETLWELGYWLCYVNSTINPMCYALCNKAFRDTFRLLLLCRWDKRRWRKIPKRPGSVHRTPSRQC
T13 sequence (P25929 whole entry): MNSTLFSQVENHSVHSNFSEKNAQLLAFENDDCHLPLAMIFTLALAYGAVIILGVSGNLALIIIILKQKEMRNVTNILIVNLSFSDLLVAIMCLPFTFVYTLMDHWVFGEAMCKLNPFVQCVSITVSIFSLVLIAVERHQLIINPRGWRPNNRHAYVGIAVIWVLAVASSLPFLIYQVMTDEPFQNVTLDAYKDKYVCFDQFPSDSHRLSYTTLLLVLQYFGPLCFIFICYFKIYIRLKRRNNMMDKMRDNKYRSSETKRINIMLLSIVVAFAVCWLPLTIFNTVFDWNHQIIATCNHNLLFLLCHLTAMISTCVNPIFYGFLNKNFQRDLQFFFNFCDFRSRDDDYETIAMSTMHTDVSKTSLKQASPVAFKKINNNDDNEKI

SMILES | EC50 (MITF) | EC50 (CDK2) | EC50 (MLANA) | inhibition at 10 µM (Adenosine A3) | inhibition at 10 µM (Adrenergic β1) | inhibition at 10 µM (Adrenergic β2) | inhibition at 10 µM (Bradykinin B1) | inhibition at 10 µM (Calcium Channel N-Type) | inhibition at 10 µM (Dopamine D2S) | inhibition at 10 µM (Endothelin ETA) | inhibition at 10 µM (Endothelin ETB) | inhibition at 10 µM (Estrogen ERα) | inhibition at 10 µM (Glutamate, NMDA, Glycine) | inhibition at 10 µM (Muscarinic M1) | inhibition at 10 µM (Muscarinic M3) | inhibition at 10 µM (Neuropeptide Y Y1) | inhibition at 10 µM (Neuropeptide Y Y2) | inhibition at 10 µM (Prostanoid EP4) | inhibition at 10 µM [1]
NS(=O)(=O)c1ccc(NC2=CC(=O)c3ccccc3C2=O)cc1 [4-((1,4-dioxo-1,4-dihydronaphthalen-2-yl)amino)benzenesulfonamide] | 160 nM | 500 nM | 500 nM | – | – | – | – | – | – | – | – | – | – | – | – | – | – | – | –
NS(=O)(=O)c1ccc(NC2=CC(=O)c3ccccc3C2=O)cc1 [Example 1, 4-((1,4-Dioxo-1,4-dihydronaphthalen-2-yl)amino)benzenesulfonamide] | – | – | – | 15% | 20% | 10% | 29% | -3% | 0% | 17% | 17% | 5% | 9% | 7% | 22% | -6% | 5% | 11% | -5%
